Test results: patent US9392792B1, “Topical combination of fipronil, permethrin and pyriproxyfen” (priority 2014, dated 2016)

Assay: Crystallization test on glass slides at ambient temperature
Type: physicochemical
Conditions: comparison of compositions R1 and C2
Protocol: Number of glass slides per composition: 5 Protocol: • place the glass slides on a dark-coloured support; • deposit approximately 300 μl of the test composition on each glass slide, while spreading it on the central part of the glass slide (so as to avoid overspill); • leave the glass slide for 24 h in an environment at ambient temperature (approximately 20° C.). The following observations will be carried out: • the visual appearance (to the naked eye) of the compositions is observed after deposition thereof on a glass slide and reported in the observation table; • the visual appearance (to the naked eye) of the compositions is observed after 24 h at ambient temperature and is reported in the observation table while pointing out the possible presence and, where appropriate, the number of crystals present on the whole of the plate; • next, the plates are observed under polarized light and any crystals present are counted on the whole of the plate; an estimation of the size of the crystals is also carried out; • finally, the presence and the count of the crystals possibly present on each of the plates is reported in the observation table. […]

CC(COc1ccc(Oc2ccccc2)cc1)Oc1ccccn1 (stereo not shown) [pyriproxyfen, Pyriproxyfen]
effect of pyriproxyfen on crystallization of fipronil in the presence of permethrin at high concentration: substantially reduces the crystallization
